According to US11760733B2, “Small molecule regulators of mitochondrial fusion and methods of use thereof” (Washington University, priority 2017, dated 2023):
“Also recorded” adds a separate entry of the source.

What was measured:
Mfn2 null MEFs = assay: Mitochondrial elongation (aspect ratio) fusogenicity assay; type: cell-based, mouse
Description: A cultured murine embryonic fibroblast assay system was used in which mitochondrial elongation (an increase in aspect ratio) reflects enhanced mitochondrial fusion.
A pharmacophore model was generated based on the interactions of HR1 and HR2 domains in the calculated structural model of Mfn2 in the closed conformation. The key features included hydrophobic interactions involving Mfn2 HR1: Val372 and Met376, and aromatic interactions and hydrogen bonding involving Mfn2 HR1 His380. […] A library comprising ˜14 million commercially available compounds was prepared in silico and evaluated using PHASE to fit these criteria. Top ranked hits were clustered, and filtered based on pharmacological properties using Qikprop. The top 55 (see TABLE 4) commercially available small molecules conforming to the model were selected for functional screening and purchased in 1 mg aliquots. Each compound was dissolved to a stock concentration of 10 mM in DMSO and applied to Mfn2 null MEFs overnight at a final concentration of 1 mM. […] Images were acquired by confocal microscopy. Each compound was scored for fusogenicity (see e.g., FIG. 24A) and % cell death (see e.g., FIG. 24B).
Wild-type MEFs were prepared from E10.5 c57/bl6 mouse embryos. […] MEFs were subcultured in DMEM (4.5 g/L glucose) plus 10% fetal bovine serum, 1× nonessential amino acids, 2 mM L-glutamine, 100U/ml penicillin and 100 ug/ml streptomycin.
Cells were excited with 408 nm (Hoechst), […] (MitoTracker Green and Calcein AM, GFP), or 637 nm (TMRE, MitoTracker Orange, Ethidium homodimer-1, and AF594-Dextran) laser diodes. For mitochondrial elongation studies mitochondrial aspect ratio (long axis/short axis) was calculated using automated edge detection and Image J software. Mitochondrial depolarization was calculated as % of green mitochondria visualized on MitoTracker Green and TMRE merged images, expressed as green/(green+yellow mitochondria)×100.

[1] = test system: cultured neurons expressing MFN2 T105M or MFN2 R94Q; assay: Cultured mouse neurons expressing CMT2A MFN2 mutants; type: cell-based
Protocol: Neonatal mouse hippocampal neurons were cultured from brains of one day old Mfn2 T105M or non-transgenic sibling mouse pups as described. After 10 days of differentiating culture neurons were infected with Adeno-Cre to induce Mfn2 T105M expression or Adeno-βgal as a control (50 MOI). After an additional 72 hours mitofusin agonists or DMSO vehicle were added. For static confocal imaging neuronal mitochondria were labeled with adenoviral-expressed mitoGFP plus TMRE. Autophagy was measured by LC3 aggregation in neurons infected with adenoviral LC3-GFP. For time-lapse studies of mitochondrial trafficking bi-cistronic Adeno-Cre/GFP marked Cre expression and mitochondria were labeled with adeno-mitoDsRed. Confocal live cell images were acquired with a time-lapse of 1 frame every 90 seconds for 1 hour.

[2] = test system: ALS and HD patient-derived fibroblasts; assay: Mitochondrial health in ALS and HD patient-derived fibroblasts; type: cell-based, human
Protocol: HD patient-derived fibroblast cell lines (GM04693 from patient and GM05539 from patient) were purchased from Invitrogen. ALS patient-derived fibroblasts (ALS 1: ND29509 from patient having SOD1 mutation; ALS 2: ND30327 having FUS1 mutation) and fibroblasts of control healthy individuals were purchased from Coriell Institute, USA. All fibroblast cultures were maintained in MEM supplemented with 15% (v/v) FBS and 1% (v/v) penicillin/streptomycin at 37° C. in 5% CO2-95% air. Galactose media was used, to increase mitochondria-dependent metabolism oxidative phosphorylation. Human fibroblasts were switched to grow for 48 h in DMEM deprived of glucose and containing galactose (4.5 g/l), 1% FBS, 5 mM sodium pyruvate and 2 mM L-glutamine for the studies.
Cells cultured in 8-well chamber slides were washed with cold PBS, fixed in 4% formaldehyde, and permeabilized with 0.1% Triton X-100. After incubation with 2% normal goat serum (to block nonspecific staining), fixed cells were incubated overnight at 4° C. with TOM20 antibody (1:500) (Santa Cruz, USA). Cells were washed with PBS and incubated for 60 minutes with FITC-conjugated goat anti-rabbit IgG (1:500 dilution). The cells were then washed gently with PBS and counterstained with Hoechst 33342 (1:10,000 dilution, Molecular Probes) to visualize nuclei. The coverslips were mounted with Slow-fade anti-fade reagent (Invitrogen), and images were acquired at 60× using an All-in-One Fluorescence Microscope BZ-X700 (Keyence).
Cells were incubated with tetra-methyl-rhodamine methyl ester (TMRM, 25 nM, Invitrogen) in HBSS (Hank's balanced salt solution) for 30 min at 37° C., per the manufacture's protocol, and the fluorescence was analyzed to measure mitochondrial membrane potential. All data were normalized with respect to the fluorescence intensity of control cells. To determine mitochondrial ROS production, cells were treated with 5 μM MitoSOX™ Red, a mitochondrial superoxide indicator (Invitrogen) for 20 min at 37° C., according to the manufacturer's protocol, and fluorescence was analyzed using SpectraMax M2e (Molecular devices).

[3] = test system: MFN2 T105M sciatic nerves; assay: Sciatic nerve axonal mitochondrial motility, agonist applied to nerve; conditions: MFN2 T105M mouse sciatic nerve
Protocol: Sciatic nerves of 12-18 week old male or female MFN2 T105M mice were removed en bloc with the lumbar spine and axotomy at the tibial nerve, stained with TMEM ([…]) for 30 minutes in prewarmed Neurobasal Medium without phenol red (Thermo Fisher Scientific) at room temperature, washed, and maintained on the stage of a Nikon A1Rsi Confocal Microscope at 37 degrees C. for time-lapse confocal studies. Images were acquired with a 40× oil immersion objective at 1 frame every 5 or 10 seconds for sequential 10 minute periods. Mitofusin agonist chimera B-A/I was added after the first 10 minute imaging period (final concentrations of […]) and nerve axons imaged for another 40 minutes. Because there was no difference in mitochondrial trafficking or response to mitofusin agonist between male and female mice, the data were combined.

[4] = test system: MFN2 Asp378 and Ala378 mutants; assay: Mitochondrial fusion in cells expressing MFN2 Ser378 mutants; type: cell-based, human; conditions: phosphomimic Asp378 vs nonphosphorylatable Ala378
Description: On the basis of fluorescence resonance energy transfer (FRET) analysis of MFN2 labeled at the N and C termini, mitofusin agonists promoted an open MFN2 conformation favoring mitochondrial fusion, with a rank order paralleling that for HR2 binding and mitochondrial fusion (see e.g., FIG. 11G; compare to FIG. 11B and FIG. 11C), supporting allosteric activation.
Human Mfn2 Ser378 was mutated to Ala or Asp by site-directed mutagenesis using the QuikChange Lightning kit (Agilent Technologies Inc.) and primers: […]
Mfn2 and its mutants were sub-cloned into adenoviral vector Type 5 (dE1/E3) with RGD-fiber modification (Vector Biolabs) using BamHI/XhoI. All constructs were verified by Sanger DNA sequencing. Adeno-viral PINK1 was purchased from Vector Biolabs.

Structure (SMILES): CC1CCCCC1NC(=O)NCCSc1nnc(C2CC2)n1-c1ccccc1 (racemic) [B-A/I, 1-(2-((5-cyclopropyl-4-phenyl-4H-1,2,4-triazol-3-yl)thio)ethyl)-3-(2-methylcyclohexyl)urea]
- fusogenic activity (mitochondrial elongation), in words (Mfn2 null MEFs): potently stimulated mitochondrial fusion
- mitochondrial fragmentation/dysmorphology, hypopolarization, autophagy in neurons ([1]; MFN2 R94Q or T105M): concomitantly corrected
- mitochondrial clumping and motility in neurons ([1]; MFN2 T105M): restored mitochondrial motility
- mitochondrial structural defects ([2]; ALS and HD fibroblasts): enhances mitochondrial structural defects
- mitochondrial ROS levels ([2]; ALS and HD fibroblasts, MitoSOX): reduces mitochondrial ROS levels
- mitochondrial membrane potential ([2]; ALS and HD fibroblasts, TMRM): improves mitochondrial membrane potential
- effect on fibroblasts from control subjects ([2]; control fibroblasts): no effect
- sciatic nerve axonal mitochondrial motility [3]: rapidly reverses mitochondrial dysmotility; also recorded: restored mitochondrial motility to within normal levels
- selectivity of fusogenic effect for MFN2 Ser378 mutants [4]: non-selective
